# According to PMC7667655, “Targeted Covalent Inhibition of Plasmodium FK506 Binding Protein 35” (ACS Medicinal Chemistry Letters, 2020):
# Read-outs that look alike come from different tables or passages of the source.
# Experiments:
# [1] = biological target: T1, FBD35 (PfFKBP35 binding domain) (Plasmodium falciparum, UniProt Q8I4V8); test: Fluorescence polarization competition, FBD35
# T1 construct: FKBP35 Q5 -A128; 6His-SUMO (N, cleaved yes); made in house; host or cells: E. coli BL21 DE3
# [2] = biological target: T2, nLuc-tagged full length PfFKBP35 (Plasmodium falciparum, UniProt Q8I4V8); test: NanoBRET cellular target engagement, nLuc-FKBP35; assay type: cell-based
# T2 construct: nanoluciferase-tagged (nLuc) full length PfFKBP35 or nLuc-tagged FKBP12; expressed in transfected cells
# [3] = biological target: T3, FKBP12 (Homo sapiens, UniProt P62942); test: Fluorescence polarization competition, FKBP12; assay type: binding
# T3 construct: 6His-SUMO (N, cleaved yes); made in house; host or cells: E. coli (identical protocol to FBD35, BL21 DE3)
# [4] = biological target: T1, FBD35 (PfFKBP35 binding domain); test: Differential scanning calorimetry, FBD35; details: read-out: FBD35 ΔTM
# [5] = biological target: T3, FKBP12; test: Differential scanning calorimetry, FKBP12; assay type: binding; details: compound 40 µM
# [6] = Plasma stability assay, mouse; assay type: in vitro ADME; details: percent remaining, 1 µM, 37 °C, 5 hours
# Description: (§1) In 96-well round-bottom plates, sorbitol -synchronized cultures of ring-stage NF54 P. falciparum parasites were established in triplicate and treated with varying concentrations of the inhibitors (25-0.0038 μM) serially diluted in complete medium. Parasite proliferation rates were analyzed after 72 h using the Renilla-Glo Luciferase Assay, and luminescence was measured using the GloMax® Discover Microplate Reader. EC 50 values were obtained from corrected dose-response curves using GraphPad Prism (version 5; GraphPad Software). Data represent the mean % luminescence relative to 5% DMSO-treated (vehicle, 100% growth) and 100 nM chloroquine-treated (no growth) controls.
# (§2) In black, clear-bottom 96-well plates (No. 3904 Corning Life Sciences), HEK293T cells were plated at 2x10^5 cells/mL in DMEM high glucose, pyruvate media (ThermoFisher Scientific, cat. 11995073) supplemented with 10% FBS and 1% pen -strep (100 μL final volume). Cells were incubated overnight at 37°C, 5% CO2. Using a Tecan D300e digital dispenser, cells were dosed in triplicate […]
# (§3) concentration, 100 mM stock in DMSO) and Carfilzomib (10 µM to 4.6 nM final concentration, 10 mM stock in DMSO) normalizing DMSO to 0.25%. Cells were then incubated at 37 °C, 5% CO2 for 72 hours. Following incubation, cells were treated with 70 µL CellTiter-Glo® Luminescent Cell Viability Assay Reagent (Promega, cat. G7570) and incubated in the dark at room temperature for 30 minutes. Plates were read using an EnVision Multimode Plate Reader (PerkinElmer). Cell viability data was normalized to DMSO controls and analyzed in GraphPad Prism 8 by fitting the data to “[Inhibitor] vs. normalized response – variable slope” model to obtain the curves.
# (§4) Each compound was prepared in duplicate at 1 µM final concentration (0.2% DMSO) in human or mouse plasma (Aldrich). Samples were incubated at 37 °C for 5 hours with mixing at 350 rpm on an orbital shaker. Aliquots of each sample were taken at time zero and following 5 hours. Each sample was quenched by adding acetonitrile in a 3:1 ratio and further diluting with 50 µl of PBS.
# (§5) After quenching, samples were centrifuged to pellet precipitated partic ulates and an aliquot of supernatant was diluted 1:1 with water. The resulting solution was analyzed by UPLC -MS/MS with compounds detected by MRM detection on a triple quadrupole mass spectrometer. The ratio of compound peak areas at 0 and 5 hours were use d to calculate the percent remaining.
# [7] = Plasma stability assay, human; assay type: in vitro ADME; details: percent remaining, 1 µM, 37 °C, 5 hours
# Description: as §1, §2, §3, §4, §5
# [8] = biological target: T4, nLuc-tagged FKBP12 (Homo sapiens, UniProt P62942); test: NanoBRET cellular target engagement, nLuc-FKBP12; assay type: cell-based
# T4 construct: full length Plasmodium falciparum FKBP35 and human FKBP12 DNA were; expressed in transfected cells
# [9] = system: NF54 P. falciparum parasites; test: P. falciparum strain NF54 growth-inhibition assay; assay type: cell-based; details: Plasmodium falciparum; luciferase reporter NF54 line, 72 h
# Description: Figure 6 P. falciparum strain NF54 growth-inhibition assay. […] Proliferation was measured by luminescence after a complete life-cycle and normalized to DMSO (100%) and chloroquine (100 nM, 0%). (B) Structural differences between synthetic ligands and compound IC50s (μM).
# Substrate and Extracellular NanoLuc® Inhibitor (Promega, cat. N2160) were diluted at 1:166 and 1:500, respectively, in Opti -MEM I Reduced Serum Media. 25 µL of this solution was added to each well and plate was read immediately using an EnVision Multimode Plate Reader (PerkinElmer). The BRET ratio was calculated using the following formula:
# BRET ratio = acceptorsample – acceptorno tracer control donorsample donorno tracer control
# NanoBRET Target Engagement Assay (384-well)
# HEK293T cells stably expressing either nLuc-FKBP12 or nLuc-FKBP35 were plated at 0.2×10^6 cells/mL in white, clear -bottom 384-well plates (Sigma Aldrich) in Opti -MEM I Reduced Serum Media (ThermoFisher Scientific) using a Mutidrop Combi Reagent Dispenser (ThermoFisher Scientific). Cells were incubated overnight at 37 °C, 5% CO 2. Using a Tecan D300e, the Rap-Gly-BDP tracer was added to cells to 1 µM. Plates were shaken at 700 RPM on an orbital plate shaker and incubated at 37 °C, 5% CO 2 for 10 minutes. Test compounds were added at the indicated concentrations using a Tecan D300e. Plates were shaken at 700 RPM on an orbital plate shaker and incubated at 37 °C, 5% CO 2 for 2 hours. NanoBRET Nano -Glo Substrate and Extracellular NanoLuc® Inhibitor (Promega, cat. N2160) were diluted at 1:166 and 1:500, respectively, in Opti-MEM I Reduced Serum Media. 10 µL of this solution was added to each well and plate was read immediately using an EnVision Multimode Plate Reader (PerkinElmer). The BRET ratio was calculated using the above formula.
# Parasite Culture and Inhibition
# NF54 P. falciparum parasites constitutively expressing Renilla luciferase (RLuc) and Blasticidin-S deaminase under the PfHsp86 5’ and PfHRP2 3‘ regulatory sequences integrated in the cg6 chromosomal locus 4 were maintained continuous ly in media consisting of human erythrocytes at 2% haematocrit (O+) resuspended in RPMI 1640 (Gibco® 31800022) supplemented with 5% Albumax (Gibco® 11021045; complete medium) and 2.5 µg/mL of Blasticidin (RPI Corp B12150-0.1) in a gas mixture consisting of 5% CO2, 1% O2, and 94% N2 at 37 °C (Trager and Jensen 2005).
# Parasitemia was determined every 48 h through microscopic examination of thin blood smears fixed in methanol, stained with 10% Giemsa solution, and sub-cultured to 0.5-1% parasitaemia.
# Compound susceptibility assays
# as §1, §2
# concentration, 100 mM stock in DMSO) and Carfilzomib (10 µM to 4.6 nM final concentration, 10 mM stock in DMSO) normalizing DMSO to 0.25%. Cells were then incubated at 37 °C, 5% CO2 for 72 hours. Following incubation, cells were treated with 70 µL CellTiter-Glo® Luminescent Cell […]
# [10] = biological target: T5, FKBP35 (Plasmodium falciparum, UniProt Q8I4V8); test: Mass spec of FKBP35 incubated with D44 analogs; assay type: biochemical
# T5 construct: FKBP35 Q5 -A128; 6His-SUMO (N, cleaved yes); made in house; host or cells: E. coli BL21 DE3
# Description: Prior to DSC experiments 400 µL of the reaction mixture was saved f or mass spectrometry analysis. For intact mass analysis, 100 µL of the reaction mixture was diluted to 0.05 mg/mL and injected onto a ZORBAX StableBond 300 C8 HPLC column [2.1 x 100 mm, 3.5 µm (Agilent)] on an Agilent HPLC binary pump system. Initial m obile phase conditions were 15% acetonitrile/85% water, both containing 0.1% formic acid. Protein was desalted for 2 minutes and eluted from the column with a gradient of 15% to 75% acetonitrile over 10 min. Intact mass measurement was performed on a Q Exa ctive mass spectrometer with an ESI source (Thermo Scientific). Source parameters: spray voltage, 3500 V; capillary temperature, 340°C; sheath gas, 35; auxiliary gas, 5; (gas flows in arbitrary units of the ESI source). MS detection was performed using a Full MS scan acquisition method, scanning over the range 800 -2100 m/z. BioPharma Finder v 3.0 (Thermo Fisher Scientific) was used for data acquisition and analysis. DSC and mass spectrometry experiments were performed in parallel.
# For chymotrypsin digestion , 20 µL of the reaction mixture was added to 20 µL of fresh denaturing solution (0.1 M urea, 0.1 M NaCl, adjusted to 10 ml with 50 mM Tris Buffer pH 8.0). Then 10 µL of 10 mM TCEP was added to the mixture, which was then incubated at 37 °C for 60 minutes. To prevent modification of free thiol groups in FKBP proteins during digestion, 4 µL of 50 mM iodoacetamide (IAA, Sigma No. A3221) was added followed by incubation at room temperature in the dark for 30 minutes. After the incubation, the reaction mixture w as brought up to 200 µL with 140 µL of 10 mM Trizma pH 7.5. The peptide fragments were generated by adding chymotrypsin at a molar ratio of 1 chymotrypsin : 100 FKBP protein and incubated overnight at 37 °C. The reaction was quenched by adding 10 µL of form ic acid (~5% of total volume) followed by a few seconds of a vortex pulse.
# Samples were analyzed using a Thermo Fisher Scientific Vanquish UHPLC connected to a Q Exactive HF mass spectrometer with a HESI source. Source parameters were as follows: spray voltage, 3500 V; capillary temperature, 300 °C; sheath gas flow, 45; auxiliary gas flow; 10; sweep gas flow, 1; (gas flows in arbitrary units of the HESI source). Digested samples were injected onto an ACQUITY UPLC BEH C18 Column [130Å, 1.7 µm, 2.1 mm X 50 mm (Waters)] held at 45 °C and desalted for 30 s with 5% acetonitrile/95% water, both containing 0.1% formic acid. Peptides were separated using a 5% to 65% acetonitrile gradient over 6.5 min. MS detection was performed using a Full MS/ddMS2 (Top 5) acquisi tion method, scanning over the range 300 -1800 m/z. […]
# DSC thermograms were recorded in MicroCal DSC from Malvern with an autosampler. […]
# [11] = Cell viability assay (CellTiter-Glo); assay type: cell-based; details: human
# Description: as §1, §2, §3
# Each compound was prepared in duplicate at 1 µM final concentration (0.2% DMSO) in human or mouse plasma (Aldrich). […]
# After quenching, samples were centrifuged to pellet precipitated partic ulates and an aliquot of supernatant was diluted 1:1 with water. The resulting solution was analyzed by UPLC -MS/MS with compounds detected by MRM detection on a triple quadrupole mass spectrometer. […]
# [12] = system: Plasmodium cultured parasites; details: Figure 1; read-out: IC50 in blood-stage antiplasmodium assays; cited from earlier work
# T5 sequence (Q8I4V8 5-128): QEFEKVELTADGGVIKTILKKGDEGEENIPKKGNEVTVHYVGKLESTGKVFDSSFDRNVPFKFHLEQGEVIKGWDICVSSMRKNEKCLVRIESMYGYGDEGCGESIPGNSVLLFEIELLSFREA
# T1 sequence (Q8I4V8 5-128): as above
# T3 sequence (P62942 whole entry): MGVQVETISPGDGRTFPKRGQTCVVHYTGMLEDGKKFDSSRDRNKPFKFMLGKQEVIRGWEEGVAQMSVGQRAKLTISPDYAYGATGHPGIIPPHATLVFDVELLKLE
# T4 sequence (P62942 whole entry): as above
# T2 sequence (Q8I4V8 whole entry): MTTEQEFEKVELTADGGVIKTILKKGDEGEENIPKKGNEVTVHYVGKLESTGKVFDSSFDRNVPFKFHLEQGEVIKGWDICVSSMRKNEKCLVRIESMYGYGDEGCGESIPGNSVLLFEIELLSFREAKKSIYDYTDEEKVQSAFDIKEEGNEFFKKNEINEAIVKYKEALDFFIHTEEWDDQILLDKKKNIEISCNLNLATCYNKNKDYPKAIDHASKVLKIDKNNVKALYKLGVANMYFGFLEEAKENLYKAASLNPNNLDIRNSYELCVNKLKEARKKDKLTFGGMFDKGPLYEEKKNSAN
structure (smiles),measurement,setting,value
CCC(=O)OCC(C)(C)C(=O)C(=O)N1CCCC[C@H]1C(=O)O[C@H](CCc1ccc(OC)c(OC)c1)c1ccccc1 [2d],IC50,[1],0.099 µM
same,IC50,[2],1.31 µM
same,IC50,[3],0.043 µM
same,ΔTm at 40 µM,[4],3 °C
same,ΔTm at 40 µM,[5],5.9 °C
same,Plasma Stability (mouse),[6],0%
same,Plasma Stability (human),[7],1%
same,IC50,[8],0.454 µM
same,IC50,[9],9.9 µM
C=CC(=O)NCc1ccccc1NC(=O)CSc1nc2cccnc2[nH]1 [D44a],% Abundance of modified FKBP35,[10]; incubation temp 37 °C,4.1%
same,% Abundance of modified FKBP35,[10]; incubation temp RT,11.5%
C=CC(=O)NCc1ccc(NC(=O)CSc2nc3cccnc3[nH]2)cc1 [D44c],% Abundance of modified FKBP35,[10]; incubation temp 37 °C,37.0%
same,% Abundance of modified FKBP35,[10]; incubation temp RT,17.1%
"CO[C@H]1C[C@@H]2CC[C@@H](C)[C@@](O)(O2)C(=O)C(=O)N2CCCC[C@H]2C(=O)O[C@H]([C@H](C)C[C@@H]2CC[C@@H](O)[C@H](OC)C2)CC(=O)[C@H](C)/C=C(\C)[C@@H](O)[C@@H](OC)C(=O)[C@H](C)C[C@H](C)/C=C/C=C/C=C/1C [Rapamycin, reference compound]",IC50 at 72 h,"[11]; HEK293T cells, HEK293T, 72 hour treatment, read-out: IC50 cell viability",63 µM
same,IC50,[9],1.1 µM
CC[C@H]1CN(Cc2ccccn2)C(=O)[C@@H]2CCC[C@H]1N2S(=O)(=O)c1cc(Cl)cc(Cl)c1 [[4.3.1]-ABS],IC50,[12],2.3 µM
CC(C)C[C@H](NC(=O)[C@H](CCc1ccccc1)NC(=O)CN1CCOCC1)C(=O)N[C@@H](Cc1ccccc1)C(=O)N[C@@H](CC(C)C)C(=O)[C@@]1(C)CO1 [carfilzomib],IC50 at 72 h,[11],0.015 µM
